We go through one compound from patent US20200216416A1, “QUINOLINE COMPOUNDS AS INHIBITORS OF TAM AND MET KINASES” (Array BioPharma Inc., priority 2019, published 2020).

The target of assay [1] is T1, His-tagged recombinant human AXL cytoplasmic domain (Homo sapiens, UniProt P30530).
T1 construct: His-tagged recombinant human AXL cytoplasmic domain
T1 sequence (P30530 473-894 limits assumed): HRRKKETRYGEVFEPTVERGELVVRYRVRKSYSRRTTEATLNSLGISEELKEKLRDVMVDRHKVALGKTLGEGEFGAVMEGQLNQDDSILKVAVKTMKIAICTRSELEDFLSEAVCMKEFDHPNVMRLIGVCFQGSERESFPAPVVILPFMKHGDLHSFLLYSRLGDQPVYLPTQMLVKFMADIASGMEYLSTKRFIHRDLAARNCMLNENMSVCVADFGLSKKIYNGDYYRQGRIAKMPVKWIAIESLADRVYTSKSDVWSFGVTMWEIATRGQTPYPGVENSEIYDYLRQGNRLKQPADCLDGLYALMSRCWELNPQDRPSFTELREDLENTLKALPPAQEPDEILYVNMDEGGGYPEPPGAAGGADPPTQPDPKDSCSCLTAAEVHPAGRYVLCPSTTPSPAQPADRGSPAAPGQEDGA
Briefly: AXL Enzyme Assay (LanthaScreen Eu Kinase Binding). Conditions: averaged IC50; 60-minute incubation at 22° C.; TR-FRET. The protocol:
(§1) Compounds disclosed herein were screened for their ability to inhibit AXL kinase using Invitrogen's LanthaScreen™Eu Kinase Binding technology. His-tagged recombinant human AXL cytoplasmic domain was incubated with 20 nM Alexa-Fluor® Tracer 236 (PR9078A), 2 nM biotinylated anti-His (Cat. No. M4408), and 2 nM europium-labeled Streptavidin (Cat. No. PV5899) along with test compound in a buffer consisting of 25 mM HEPES, pH 7.4, 10 mM MgCl2, 0.01% Triton X-100, and 2% DMSO. Compounds were typically prepared in a threefold serial dilution in DMSO and added to the assay to give the appropriate final concentration. After a 60-minute incubation at 22° C., the reaction was measured using a PerkinElmer EnVision multimode plate reader via TR-FRET dual wavelength detection, and the percent of control (POC) was calculated using a ratiometric emission factor. […] The POC values are fit to a 4 parameter logistic curve and the IC50 value is point where the curve crosses 50 POC.

Assay [2] concerns the target T2, GST-tagged recombinant human TYRO3 kinase domain (Homo sapiens, UniProt Q06418).
T2 construct: GST-tagged recombinant human TYRO3 kinase domain; purchased Carna PR7480A
T2 sequence (Q06418 518-790 limits assumed): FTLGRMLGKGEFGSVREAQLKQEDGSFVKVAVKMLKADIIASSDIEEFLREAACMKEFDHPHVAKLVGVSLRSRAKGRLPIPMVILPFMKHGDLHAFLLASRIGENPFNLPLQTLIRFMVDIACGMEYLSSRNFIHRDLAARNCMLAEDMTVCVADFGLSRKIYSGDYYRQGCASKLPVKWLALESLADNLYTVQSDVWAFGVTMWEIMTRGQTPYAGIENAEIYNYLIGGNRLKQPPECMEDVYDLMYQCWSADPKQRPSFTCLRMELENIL
Briefly: TYRO3 Enzyme Assay (LanthaScreen Eu Kinase Binding). Conditions: averaged IC50; TYRO3 5 nM; 60-minute incubation at 22° C.; TR-FRET. The protocol:
Compounds disclosed herein were screened for their ability to inhibit TYRO3 kinase using Invitrogen's LanthaScreenTM Eu Kinase Binding technology. GST-tagged recombinant human TYRO3 kinase domain from Carna (5 nM; Cat. No. P[…]) was incubated with 20 nM Alexa-Fluor® Tracer 236 (P[…]) and 2 nM Europium-anti-GST (Cat. No. A15116) along with test compound in a buffer consisting of 25 mM HEPES, pH 7.4, 10 mM MgCl2, 0.01% Triton X-100, and 2% DMSO. Compounds are typically prepared in a threefold serial dilution in DMSO and added to the assay to give the appropriate final concentration. After a 60-minute incubation at 22° C., the reaction was measured using a PerkinElmer EnVision multimode plate reader via TR-FRET dual wavelength detection, and the percent of control (POC) calculated using a ratiometric emission factor. […] The POC values were fit to a 4 parameter logistic curve and the IC50 value is point where the curve crosses 50 POC.
(In general: In TR-FRET formats the signal depends on donor and acceptor labels being close together.)

Assay [3] addresses T3, His-tagged recombinant human MER cytoplasmic domain (Homo sapiens, UniProt Q12866).
T3 construct: His-tagged recombinant human MER cytoplasmic domain
T3 sequence (Q12866 527-999 limits assumed): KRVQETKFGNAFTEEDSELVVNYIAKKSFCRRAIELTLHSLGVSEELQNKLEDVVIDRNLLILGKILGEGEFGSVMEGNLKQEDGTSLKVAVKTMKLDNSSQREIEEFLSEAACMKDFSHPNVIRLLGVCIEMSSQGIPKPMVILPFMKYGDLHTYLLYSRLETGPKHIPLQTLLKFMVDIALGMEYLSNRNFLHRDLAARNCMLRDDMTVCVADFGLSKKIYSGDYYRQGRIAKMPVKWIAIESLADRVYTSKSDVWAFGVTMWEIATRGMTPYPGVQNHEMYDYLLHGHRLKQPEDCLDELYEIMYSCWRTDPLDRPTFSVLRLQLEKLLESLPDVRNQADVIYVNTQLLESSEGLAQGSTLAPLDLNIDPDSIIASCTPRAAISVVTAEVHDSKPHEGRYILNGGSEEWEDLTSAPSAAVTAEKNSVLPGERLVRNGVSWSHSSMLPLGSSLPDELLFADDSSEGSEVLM
Briefly: MER Enzyme Assay (LanthaScreen Eu Kinase Binding). Conditions: averaged IC50; MER 5 nM; 60-minute incubation at 22° C.; TR-FRET. The protocol:
as §1, with “human MER” for “human AXL”, “domain (5 nM)” for “domain”, “mM MgCl 2,” for “mM MgCl2,”

As to `COc1ccc2nccc(Oc3ccc(NC(=O)c4cn(C(C)C)cc(-c5ccc(F)cc5)c4=O)nc3)c2c1` [Example 40, 5-(4-fluorophenyl)-1-isopropyl-N-(5-((6-methoxyquinolin-4-yl)oxy)pyridin-2-yl)-4-oxo-1,4-dihydropyridine-3-carboxamide], the half-inhibitory concentration (IC50) – broadly, the concentration needed to halve the response being measured – in assay [1] was 0.006 µM; in assay [2], 0.019 µM; in assay [3], 0.019 µM.
